pIC50: −log10 of the molar value.
Key:
Format in all cases: cell-based
MCF-7 cells = assay: Breast Cancer Cell Viability Assay (MCF7 Viability Assay); conditions: 5 days' compound exposure, CellTiter-Glo; for pIC50: Homo sapiens, MCF7, 120 h
Method: MCF-7 cells were adjusted to a concentration of 20,000 cells per mL in RPMI containing 10% FBS and 20 mM HEPES. 16 microliters of the cell suspension (320 cells) was added to each well of a 384 well plate, and the cells were incubated overnight to allow the cells to adhere. The following day an eleven point, serial semilog dilution of each compound was added to the cells in 16 μL at a final concentration ranging from 0.3-0.000003 μM. After 5 days' compound exposure, 16 μL of CellTiter-GLo (Promega, Madison Wis.) was added to the cells the relative luminescence units (RLUs) of each well was determined. CellTiter-Glo added to 32 μL of medium without cells was used to obtain a background value. The Percent viability of each sample was determined as follows: (RLU sample-RLU background/RLU untreated cells-RLU background)×100=% viability.

ER-α [1] = target: T1, ER-α (Homo sapiens, UniProt P03372); assay: ER-α In Cell Western Assay (ER1D5); conditions: MCF-7 cells, ER1D5 antibody, 4 or 24 hr post compound addition, read-out: ER In-Cell Western Assay (ER1D5); for Emax: MCF7, Max Response; for DC50: IC50
T1 construct: endogenous in cells; host or cells: MCF-7
T1 sequence (P03372 1-595): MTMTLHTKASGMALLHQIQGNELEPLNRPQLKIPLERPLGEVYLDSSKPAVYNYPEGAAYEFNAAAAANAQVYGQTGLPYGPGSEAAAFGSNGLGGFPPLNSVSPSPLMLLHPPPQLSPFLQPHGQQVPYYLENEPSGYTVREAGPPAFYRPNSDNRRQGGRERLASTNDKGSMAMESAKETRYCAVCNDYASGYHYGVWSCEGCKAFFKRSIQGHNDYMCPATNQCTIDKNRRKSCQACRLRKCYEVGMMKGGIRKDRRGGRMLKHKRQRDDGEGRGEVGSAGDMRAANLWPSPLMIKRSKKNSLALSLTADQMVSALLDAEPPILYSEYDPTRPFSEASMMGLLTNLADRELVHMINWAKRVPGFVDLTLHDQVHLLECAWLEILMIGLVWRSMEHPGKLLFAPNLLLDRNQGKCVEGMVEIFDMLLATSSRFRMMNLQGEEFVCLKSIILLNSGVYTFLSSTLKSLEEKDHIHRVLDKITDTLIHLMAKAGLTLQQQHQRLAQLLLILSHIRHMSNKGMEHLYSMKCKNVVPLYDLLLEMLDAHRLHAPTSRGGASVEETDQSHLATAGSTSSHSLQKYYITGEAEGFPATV
Method: (§1) MCF-7 cells were adjusted to a concentration of 200,000 cells per mL in RPMI containing 10% charcoal-stripped FBS and 20 mM HEPES. 16 microliters of the cell suspension (3200 cells) was added to each well of a poly-D-lysine 384 well plate, and the cells were incubated overnight to allow the cells to adhere. The following day an eleven point, serial semilog dilution of each compound was added to the cells in 16 μL at a final concentration ranging from 0.3-0.000003 μM. At 4 or 24 hr post compound addition, the cells were fixed (10% formalin in PBS) for 20 minutes. Cells were permeabalized in PBS 0.1% Triton and blocked with LICOR blocking buffer (50 μl/well, 90′). The wells were then incubated overnight at 4° C. with ER1D5 (Santa Cruz Biotechnology) diluted 1:100 in LICOR blocking buffer/0.1% Tween-20. Wells which were treated with blocking buffer with Tween but no antibody were used as a background control. Wells were washed with 0.1% Tween-20/PBS and then incubated in goat anti-mouse IRDye™ 800CW (LICOR Inc.; 1:1000) and DRAQ5 DNA dye (1:2000 for 2 mM stock) diluted in LICOR blocking buffer containing 0.1% Tween-20 and 0.01% SDS for 60 minutes. Cells were washed (50 μl/well, 5′ each) in 0.1% Tween-20/PBS. Plates were scanned on a LICOR Odyssey infrared imaging system. Integrated intensities in the 800 nm channel and 700 nm channel were measured to determine levels of ER and DNA respectively. Percent ER levels were determined as follows: (Integrated intensity 800 nm sample/integrated intensity 700 nm sample)/(Integrated intensity 800 nm untreated cells/integrated intensity 700 nm untreated cells)×100=% ER levels.

ER-α [2] = target: T1, ER-α; assay: ER-α in Cell Western Assay (SP1); conditions: MCF-7 cells, SP1 rabbit monoclonal Ab, 4 or 24 hr post compound addition, read-out: ER In-Cell Western Assay (SP1); for Emax: MCF7, Max Response; for DC50: IC50
Method: as §1, with “with SP1 rabbit monoclonal Ab (Thermo Scientific)” for “with ER1D5 (Santa Cruz Biotechnology)”, “diluted 1:1000” for “diluted 1:100”, “goat anti-rabbit” for “goat anti-mouse”

Structure (SMILES)	MCF7 Viability Assay Max Response (MCF-7 cells)	pIC50 (MCF-7 cells)	Emax (ER-α [1])	DC50 (ER-α [1])	Emax (ER-α [2])	DC50 (ER-α [2])
CNCCOc1ccc(C2Oc3ccc(O)cc3C(C)=C2c2cccc(O)c2)cc1 (stereo not drawn) [Example 3, 3-(3-Hydroxyphenyl)-4-methyl-2-(4-(2-(methylamino)ethoxy)phenyl)-2H-chromen-6-ol]	++ (++ = a single % value ≧50%)	≥ 9.00	< 40%	≤ 1 nM	< 60%	≤ 1 nM
CC1=C(c2cccc(O)c2)C(c2ccc(N(C)CCO)cc2)Oc2ccc(O)cc21 (stereo not drawn) [Example 4, 2-(4-((2-Hydroxyethyl)(methyl)amino)phenyl)-3-(3-hydroxyphenyl)-4-methyl-2H-chromen-6-ol]	+ (+ = a single % value <50%)	< 9.00	< 40%	> 1 nM	< 60%	> 1 nM
CCN(CC)CCOc1ccc(C2Oc3ccc(O)cc3C(C)=C2c2cccc(O)c2)cc1 (stereo not drawn) [Example 5, 2-(4-(2-(Diethylamino)ethoxy)phenyl)-3-(3-hydroxyphenyl)-4-methyl-2H-chromen-6-ol]	++ (++ = a single % value ≧50%)	≥ 9.00	< 40%	> 1 nM	< 60%	≤ 1 nM
CC1=C(c2cccc(O)c2)C(c2ccc(OC[C@H](C)N3CCCC3)cc2)Oc2ccc(O)cc21 (stereo partly drawn) [Example 6, 3-(3-Hydroxyphenyl)-4-methyl-2-(4-((S)-2-(pyrrolidin-1-yl)propoxy)phenyl)-2H-chromen-6-ol]	++ (++ = a single % value ≧50%)	≥ 9.00	≥ 65%	≤ 1 nM	60 to 85%	≤ 1 nM
CC1=C(c2cccc(O)c2)C(c2ccc(OC[C@@H](C)N3CCCC3)cc2)Oc2ccc(O)cc21 (stereo partly drawn) [Example 7, 3-(3-Hydroxyphenyl)-4-methyl-2-(4-((R)-2-(pyrrolidin-1-yl)propoxy)phenyl)-2H-chromen-6-ol]	+ (+ = a single % value <50%)	≥ 9.00	< 40%	> 1 nM	< 60%	≤ 1 nM
CC1=C(c2cccc(O)c2)C(c2ccc(OCCN3CC[C@@H](C)C3)cc2)Oc2ccc(O)cc21 (stereo partly drawn) [Example 8, 3-(3-Hydroxyphenyl)-4-methyl-2-(4-(2-((R)-3-methylpyrrolidin-1-yl)ethoxy)phenyl)-2H-chromen-6-ol]	++ (++ = a single % value ≧50%)	≥ 9.00	≥ 65%	≤ 1 nM	≥ 85%	≤ 1 nM
CC1=C(c2cccc(O)c2)C(c2ccc(OCCN3CCCCC3)cc2)Oc2ccc(O)cc21 (stereo not drawn) [Example 9, 3-(3-Hydroxyphenyl)-4-methyl-2-(4-(2-piperidylethoxy)phenyl)-2H-chromen-6-ol]	++ (++ = a single % value ≧50%)	≥ 9.00	40 to 65%	≤ 1 nM	60 to 85%	≤ 1 nM
CC1=C(c2cccc(O)c2)C(c2ccc(OC[C@@H](C)N3CC[C@@H](C)C3)cc2)Oc2ccc(O)cc21 (stereo partly drawn) [Example 10, 3-(3-Hydroxyphenyl)-4-methyl-2-(4-((R)-2-((R)-3-methylpyrrolidin-1-yl)propoxy)phenyl)-2H-chromen-6-ol]	+ (+ = a single % value <50%)	≥ 9.00	< 40%	≤ 1 nM	60 to 85%	≤ 1 nM
CC1=C(c2cccc(O)c2)C(c2ccc(OCCN3CC[C@H](C)C3)cc2)Oc2ccc(O)cc21 (stereo partly drawn) [Example 11, 3-(3-Hydroxyphenyl)-4-methyl-2-(4-(2-((S)-3-methylpyrrolidin-1-yl)ethoxy)phenyl)-2H-chromen-6-ol]	++ (++ = a single % value ≧50%)	≥ 9.00	40 to 65%	≤ 1 nM	60 to 85%	≤ 1 nM
CC1=C(c2cccc(O)c2)C(c2ccc(OC[C@H](C)N3CC[C@H](C)C3)cc2)Oc2ccc(O)cc21 (stereo partly drawn) [Example 12, 3-(3-Hydroxyphenyl)-4-methyl-2-(4-((S)-2-((S)-3-methylpyrrolidin-1-yl)propoxy)phenyl)-2H-chromen-6-ol]	++ (++ = a single % value ≧50%)	≥ 9.00	40 to 65%	≤ 1 nM	60 to 85%	≤ 1 nM
CC1=C(c2cccc(O)c2)C(c2ccc(OC[C@@H](C)N3CC[C@H](C)C3)cc2)Oc2ccc(O)cc21 (stereo partly drawn) [Example 13, 3-(3-Hydroxyphenyl)-4-methyl-2-(4-((R)-2-((S)-3-methylpyrrolidin-1-yl)propoxy)phenyl)-2H-chromen-6-ol]	++ (++ = a single % value ≧50%)	≥ 9.00	< 40%	≤ 1 nM	< 60%	≤ 1 nM
CC1=C(c2cccc(O)c2)C(c2ccc(OCCn3cccc3)cc2)Oc2ccc(O)cc21 (stereo not drawn) [Example 14, 3-(3-Hydroxyphenyl)-4-methyl-2-(4-(2-pyrrolylethoxy)phenyl)-2H-chromen-6-ol]	+ (+ = a single % value <50%)	≥ 9.00	40 to 65%	≤ 1 nM	60 to 85%	≤ 1 nM
CC1=C(c2cccc(O)c2)C(c2ccc(OC[C@H](C)N3CCCCCC3)cc2)Oc2ccc(O)cc21 (stereo partly drawn) [Example 15, 2-(4-((S)-2-(Azepan-1-yl)propoxy)phenyl)-3-(3-hydroxyphenyl)-4-methyl-2H-chromen-6-ol]	++ (++ = a single % value ≧50%)	≥ 9.00	40 to 65%	≤ 1 nM	60 to 85%	≤ 1 nM
